The structures appear in SMILES notation. Where a name gives a salt, the structure may show the parent alone. Read-outs that look alike come from different tables or passages of the source.

The source of these data is US20110053916A1 (Vertex Pharmaceuticals Incorporated, priority 2009, published 2011).

Test [1] relates to Mycobacterium tuberculosis H37Ra. The test is described as follows: Mycobacterium tuberculosis growth inhibition assay (microtiter dilution, resazurin reduction). Format: cell-based. To be noted: 7H9 broth, 9 days + 24 h resazurin, lowest concentration inhibiting resazurin reduction by >70%, several symbols in a cell = repeat determinations. The method in brief:
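Resazurin-based microtiter dilution MIC: compounds in 7- or 11-step two-fold series with ~1×10^6 cells/mL H37Ra in 7H9/10% ADC, 9 days at 37 °C, then 24 h with dye. MIC is the lowest concentration giving >70% inhibition of resazurin reduction relative to DMSO controls, by 492/595 nm fluorescence.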
On the technique in general: The colour change of resazurin is a common sign of viable cells or microbes.

Test [2] concerns the target T1, PknB (Mycobacterium tuberculosis, UniProt P9WI81).
T1 construct: made in house
Nature of the test: biochemical. The following applies: for Ki: read-out: Ki Values. Also noted: species or system M. tuberculosis.

Where [3] appears, read: 3 nM PknB, 6 uM GarA, 3 μM ATP, 30 min, competitive tight-binding fit, several symbols in a cell = repeat determinations.

T1 sequence (P9WI81 whole entry): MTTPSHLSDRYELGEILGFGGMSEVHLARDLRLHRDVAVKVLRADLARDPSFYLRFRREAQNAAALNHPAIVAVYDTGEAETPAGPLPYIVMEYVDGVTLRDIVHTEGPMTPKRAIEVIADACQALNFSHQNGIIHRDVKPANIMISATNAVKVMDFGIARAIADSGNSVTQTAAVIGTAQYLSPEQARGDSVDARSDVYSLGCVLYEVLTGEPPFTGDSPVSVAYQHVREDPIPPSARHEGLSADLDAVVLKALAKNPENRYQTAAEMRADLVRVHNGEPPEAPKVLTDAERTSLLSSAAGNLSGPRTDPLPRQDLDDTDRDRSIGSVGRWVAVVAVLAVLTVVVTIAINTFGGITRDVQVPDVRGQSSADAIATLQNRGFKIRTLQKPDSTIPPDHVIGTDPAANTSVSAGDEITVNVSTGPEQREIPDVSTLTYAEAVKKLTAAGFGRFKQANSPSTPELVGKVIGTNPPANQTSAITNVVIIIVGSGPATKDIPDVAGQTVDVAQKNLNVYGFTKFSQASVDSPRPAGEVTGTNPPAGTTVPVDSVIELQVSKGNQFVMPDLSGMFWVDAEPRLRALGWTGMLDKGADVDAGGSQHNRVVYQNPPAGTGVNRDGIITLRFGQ

With `CC(=O)OC/C=C/c1cnc(-c2ccccc2)nc1Nc1cc(C2CC2)[nH]n1` [Compound 81, (E)-3-(4-(5-cyclopropyl-1H-pyrazol-3-ylamino)-2-phenylpyrimidin-5-yl)allyl acetate], the MIC values entry in test [1] is “B++, B+”. In addition, the Ki (usually a measure of affinity in units of concentration, obtained from inhibition or displacement) in test [2] (setting [3]) was in the range of 0.1 to 0.5 µM.
Regarding `NC(=S)c1ncc(Cl)c(Nc2cc(C3CC3)[nH]n2)n1` [Compound 305, 5-chloro-4-[(5-cyclopropyl-1H-pyrazol-3-yl)amino]-pyrimidine-2-carbothioamide], the MIC values entry in test [1] was “A, B++”. Moreover, the Ki in test [2] (setting [3]) lay in the range of 0.5 to 1 µM.
For `Oc1cccc(-c2ncc(Cl)c(Nc3cc(C4CC4)[nH]n3)n2)c1` [Compound 104, 3-[5-chloro-4-[(5-cyclopropyl-1H-pyrazol-3-yl)amino]-pyrimidin-2-yl]phenol], in test [1], the MIC values result is “B++, C”. Moreover, the “Ki Values” in test [2] (setting [3]) is “A*, A”.
As for `CC(C)(C)OC(=O)/N=C(\N)c1ccc(-c2ncc(Cl)c(Nc3cc(C4CC4)[nH]n3)n2)s1` [Compound 197, tert-butyl [[amino-[5-[5-chloro-4-[(5-cyclopropyl-1H-pyrazol-3-yl)amino]-pyrimidin-2-yl]-2-thienyl]-methylene]amino]formate], in test [1], the MIC values entry is listed as “B+”. Also, the Ki in test [2] (setting [3]) was 0.5 to 1 µM.
As for `O=C(O)c1cccc(Nc2nccc(Nc3cc(C4CC4)n[nH]3)n2)c1` [Compound 63, 3-[[4-[(5-cyclopropyl-2H-pyrazol-3-yl)amino]pyrimidin-2-yl]amino]benzoic acid], the MIC values entry in test [1] is recorded as “B+”. The Ki in test [2] (setting [3]) is greater than 4 µM.
As to `CN(C)S(=O)(=O)c1ccc(-c2ncc(Cl)c(Nc3cc(C4CC4)[nH]n3)n2)s1` [Compound 74, 5-[5-chloro-4-[(5-cyclopropyl-1H-pyrazol-3-yl)amino]-pyrimidin-2-yl]-N,N-dimethyl-thiophene-2-sulfonamide], in test [1], the MIC values entry was “A, B++, C”. For the same molecule, the Ki in test [2] (setting [3]) was 0.001 to 0.01 µM.
For the molecule `CS(=O)(=O)Nc1cccc(-c2ncc(Cl)c(Nc3cc(C4CC4)[nH]n3)n2)c1` [Compound 107, N-[3-[5-chloro-4-[(5-cyclopropyl-1H-pyrazol-3-yl)amino]pyrimidin-2-yl]phenyl]methanesulfonamide], the MIC values result in test [1] is on record as “B++, B+”. Further, the Ki in test [2] (setting [3]) lay within 0.05 to 0.1 µM.
Regarding `Cc1cnc(-c2ccc(S(=O)(=O)NC(C)(C)C)s2)nc1Nc1cc(C2CC2)n(C)n1` [Compound 149, 5-[4-[(5-cyclopropyl-1-methyl-pyrazol-3-yl)amino]-5-methyl-pyrimidin-2-yl]-N-tert-butyl-thiophene-2-sulfonamide], the MIC values result in test [1] was “B+”. Besides, the Ki in test [2] (setting [3]) was greater than 4 µM.
Turning to `C#Cc1cnc(-c2ccc([C@@H](O)CC)s2)nc1Nc1cc(C2CC2)[nH]n1` (stereo in doubt) [Compound 199, 1-[5-[4-[(5-cyclopropyl-1H-pyrazol-3-yl)amino]-5-ethynyl-pyrimidin-2-yl]-2-thienyl]propan-1-ol], the MIC values result in test [1] is on record as “B+”. Besides, the “Ki Values” in test [2] (setting [3]) is listed as “A**, A*”.
In the case of `C#Cc1cnc(-c2ccc([C@H](O)CCC)s2)nc1Nc1cc(C2CC2)n[nH]1` [Compound 215, 1-[5-[4-[(5-cyclopropyl-2H-pyrazol-3-yl)amino]-5-ethynyl-pyrimidin-2-yl]-2-thienyl]butan-1-ol], the MIC values result in test [1] is “B++”. The “Ki Values” in test [2] (setting [3]) was “A**, A**, A*”.
Regarding `NS(=O)(=O)c1ccc(-c2nccc(Nc3cc(C4CC4)[nH]n3)n2)cc1` [Compound 323, 4-[4-[(5-cyclopropyl-1H-pyrazol-3-yl)amino]pyrimidin-2-yl]benzenesulfonamide], the MIC values result in test [1] is “B++”. Further, the Ki in test [2] (setting [3]) was 0.01 to 0.05 µM.
Turning to `N#CCc1ccc(Nc2nccc(Nc3cc(C4CC4)[nH]n3)n2)cc1` [Compound 1, 2-(4-(4-(5-cyclopropyl-1H-pyrazol-3-ylamino)pyrimidin-2-ylamino)phenyl)acetonitrile], the MIC values result in test [1] was “BM, B”. In test [2] (setting [3]), the Ki fell in the range of 0.01 to 0.05 µM.
As for `CC(O)c1ccc(-c2nccc(Nc3cc(C4CC4)[nH]n3)n2)cc1` (stereo not shown) [Compound 312, 1-[4-[4-[(5-cyclopropyl-1H-pyrazol-3-yl)amino]pyrimidin-2-yl]phenyl]ethanol], in test [1], the MIC values result was “B+”. In addition, the inhibition constant Ki in test [2] (setting [3]) fell in the range of 0.01 to 0.05 µM.
For `O=S(=O)(NCCO)c1ccc(-c2ncc(Cl)c(Nc3cc(C4CC4)[nH]n3)n2)s1` [Compound 86, 5-[5-chloro-4-[(5-cyclopropyl-1H-pyrazol-3-yl)amino]-pyrimidin-2-yl]-N-(2-hydroxyethyl)thiophene-2-sulfonamide], in test [1], the MIC values entry is reported as “B++”. Moreover, the Ki in test [2] (setting [3]) lay within 0.001 to 0.01 µM.
For the molecule `CN(CCO)S(=O)(=O)c1ccc(-c2ncc(Cl)c(Nc3cc(C4CC4)[nH]n3)n2)s1` [Compound 129, 5-(5-Chloro-4-(5-cyclopropyl-1H-pyrazol-3-ylamino)pyrimidin-2-yl)-N-(2-hydroxyethyl)-N-methylthiophene-2-sulfonamide], in test [1], the MIC values entry is listed as “B++”. For the same molecule, in test [2] (setting [3]), the Ki was 0.001 to 0.01 µM.
Regarding `NS(=O)(=O)c1ccc(-c2nc(Nc3cc(C4CC4)n[nH]3)cc(N3CCOCC3)n2)s1` [Compound 290, 5-[4-[(5-cyclopropyl-2H-pyrazol-3-yl)amino]-6-morpholino-pyrimidin-2-yl]thiophene-2-sulfonamide], in test [1], the MIC values result is given as “B++”. Moreover, the Ki in test [2] (setting [3]) lay within 0.5 to 1 µM.
As to `NCCNS(=O)(=O)c1cccc(-c2ncc(Cl)c(Nc3cc(C4CC4)[nH]n3)n2)c1` [Compound 138, N-(2-aminoethyl)-3-[5-chloro-4-[(5-cyclopropyl-1H-pyrazol-3-yl)amino]-pyrimidin-2-yl]-benzenesulfonamide], in test [1], the MIC values entry is recorded as “B, C”. In test [2] (setting [3]), the Ki was 0.01 to 0.05 µM.
In the case of `OC1/C=C\c2c(n[nH]c2C2CC2)Nc2nc(ncc2Cl)-c2ccccc21` (stereo not shown) [Compound 232, chloro-cyclopropyl-BLAHol], the MIC values result in test [1] is reported as “B, C”. Moreover, the Ki in test [2] (setting [3]) was greater than 4 µM.
The corresponding values for `CC(C)(C)NS(=O)(=O)c1ccc(-c2ncc(C#CCO)c(Nc3cc(C4CC4)[nH]n3)n2)s1` [Compound 216, N-tert-butyl-5-(4-(5-cyclopropyl-1H-pyrazol-3-ylamino)-5-(3-hydroxyprop-1-ynyl)pyrimidin-2-yl)thiophene-2-sulfonamide] are “B+” and 1 to 2 µM.
`NS(=O)(=O)c1ccc(-c2ncc(CO)c(Nc3cc(C4CC4)n[nH]3)n2)s1` [Compound 171, 5-(4-(5-cyclopropyl-1H-pyrazol-3-ylamino)-5-(hydroxymethyl)pyrimidin-2-yl)thiophene-2-sulfonamide]: the MIC values result in test [1] is on record as “B++”. Also, the “Ki Values” in test [2] (setting [3]) is “A, B**, B**”.
For `CS(=O)(=O)Nc1ccc(-c2ncc(Cl)c(Nc3cc(C4CC4)[nH]n3)n2)cc1` [Compound 105, N-[4-[5-chloro-4-[(5-cyclopropyl-1H-pyrazol-3-yl)amino]pyrimidin-2-yl]phenyl]methanesulfonamide], the MIC values result in test [1] is on record as “B+”. Also, the Ki in test [2] (setting [3]) was in the range of 0.01 to 0.05 µM.
Consider `CC(C#N)c1ccc(-c2ncc(Cl)c(Nc3cc(C4CC4)[nH]n3)n2)s1` (stereo not shown) [Compound 226, 2-[5-[5-chloro-4-[(5-cyclopropyl-1H-pyrazol-3-yl)amino]-pyrimidin-2-yl]-2-thienyl]propanenitrile], for which, in test [1], the MIC values entry is reported as “B++”. In test [2] (setting [3]), the Ki lay within 0.01 to 0.05 µM.
Take `Cc1nc(-c2ccc(S(N)(=O)=O)s2)nc(Nc2cc(C3CC3)[nH]n2)c1Cl` [Compound 266, 5-[5-chloro-4-[(5-cyclopropyl-1H-pyrazol-3-yl)amino]-6-methyl-pyrimidin-2-yl]thiophene-2-sulfonamide]: the MIC values entry in test [1] is given as “A+, A, A, C”. In addition, in test [2] (setting [3]), the Ki was in the range of 0.001 to 0.01 µM.
In the case of `NS(=O)(=O)c1cccc(-c2ncc(CO)c(Nc3cc(C4CC4)n[nH]3)n2)c1` [Compound 124, 3-(4-(5-cyclopropyl-1H-pyrazol-3-ylamino)-5-(hydroxymethyl)pyrimidin-2-yl)benzenesulfonamide], the MIC values result in test [1] is given as “A, B++”. Also, the Ki in test [2] (setting [3]) was in the range of 0.05 to 0.1 µM.
Consider `CC(C)(C)NS(=O)(=O)c1ccc(-c2ncc(Cl)c(Nc3cc(C4CCN(C(=O)OCc5ccccc5)C4)n[nH]3)n2)s1` (stereo not shown) [Compound 257, benzyl 3-[5-[[5-chloro-2-[5-(tert-butylsulfamoyl)-2-thienyl]-pyrimidin-4-yl]amino]-1H-pyrazol-3-yl]pyrrolidine-1-carboxylate], for which the MIC values entry in test [1] is reported as “B++”. Moreover, the Ki in test [2] (setting [3]) was greater than 4 µM.
Consider `C#Cc1cnc(-c2ccc(CN)s2)nc1Nc1cc(C2CC2)[nH]n1` [Compound 167, 2-(5-(aminomethyl)thiophen-2-yl)-N-(5-cyclopropyl-1H-pyrazol-3-yl)-5-ethynylpyrimidin-4-amine hydrochloride], for which the MIC values result in test [1] is listed as “B++”. Besides, the “Ki Values” in test [2] is “A, A, A, B**”.
With `CNS(=O)(=O)c1ccc(-c2ncc(Cl)c(Nc3cc(C4CC4)[nH]n3)n2)s1` [Compound 37, 5-[5-chloro-4-[(5-cyclopropyl-1H-pyrazol-3-yl)amino]-pyrimidin-2-yl]-N-methyl-thiophene-2-sulfonamide], the MIC values result in test [1] is “B+”. Besides, the Ki in test [2] (setting [3]) lay within 0.001 to 0.01 µM.
Regarding `C#Cc1cnc(-c2ccc(C)c(C(N)=O)c2)nc1Nc1cc(C2CC2)[nH]n1` [Compound 93, 5-(4-(5-Cyclopropyl-1H-pyrazol-3-ylamino)-5-ethynylpyrimidin-2-yl)-2-methyl benzamide], the MIC values result in test [1] is on record as “B, C”. Also, the Ki in test [2] (setting [3]) is 0.01 to 0.05 µM.
In the case of `CC(C)(C#N)c1ccc(-c2ncc(Cl)c(Nc3cc(C4CC4)[nH]n3)n2)s1` [Compound 238, 2-[5-[5-chloro-4-[(5-cyclopropyl-1H-pyrazol-3-yl)amino]-pyrimidin-2-yl]-2-thienyl]-2-methyl-propanenitrile], the MIC values entry in test [1] is “B++”. Further, the Ki in test [2] (setting [3]) was in the range of 0.001 to 0.01 µM.
